In patent US12312370B2, “Immunoproteasome inhibitors” (Principia Biopharma Inc., priority 2017, dated 2025) one finds IC50 data, which are given here for 14 compounds.

A value given as a limit tells only on which side of the number the result lay.

Assay [1] has as its target immunoproteasome LMP7/B5i subunit (Homo sapiens, UniProt P28062). Description: Caliper-based proteasome enzymatic activity assay, LMP7. The assay is classed as biochemical. The following applies: human recombinant immunoproteasome 0.3 nM, FAM-labeled peptide substrate 1 μM, rt 3 h; read-out: LMP7 subunit IC50.
In assay [2] the target is T1, HT29/B5c (Homo sapiens, UniProt P28074). As to the kind of experiment: Proteasome-Glo inhibition of proteasome activity in cells, HT29/B5c. The class given is cell-based. The following applies: HT-29 cells, 2 h incubation at 37° C. On the procedure: (§1) The cell-based effects of a compound described herein on the immunoproteasome were determined by measuring inhibition of proteasome activity in cells using the Proteasome-Glo™ Cell-Based Reagent (Promega, Madison WI). The Proteasome-Glo™ assay contains a specific luminogenic proteasome substrate in a buffer optimized for cell permeabilization, proteasome activity, and luciferase activity. For the chymotrypsin-like activity (LMP7 and β5c), the peptide substrate is Suc-LLVY-aminoluciferin (Succinyl-leucine-leucine-valine-tyrosine-aminoluciferin). Cleavage of the substrate by proteasome results in luminescent signal which is proportional to the proteasome activity. The cell line THP-1 (a monocytic leukemia cell line enriched in immunoproteasome), the cell line HT-29 (a colorectal adenocarcinoma cell line enriched in constitutive proteasome), and primary human peripheral blood mononuclear cells (PBMC) were used to assess proteasome activity. Cells were seeded in a 96-well plate at 10,000 cells per well in RPMI 1640 high glucose medium with 10% fetal bovine scrum (FBS). Compound dilutions were added to cells starting at a concentration of 5 uM and decreasing in tripling dilutions. The final DMSO concentration was 1%. The concentration range was adjusted as needed for compounds of different potencies. The cells treated with compounds were incubated for 2 h at 37° C. in 5% CO2. At the end of the 2 hour incubation period, cells were transferred to white 384 well assay plates. 20 uL of Proteasome-Glo™ Reagent was added to each well and incubated for 10 minutes at rt. The plate was read in the Analyst HT instrument (Molecular Devices, Sunnyvale, CA) using luminescence mode. The percent inhibition of activity was plotted as a function of log compound concentration. The IC50 was then calculated for each compound using Prism software from GraphPad Software Inc. (San Diego, CA).

The target in assay [3] is T2, PBMC/LMP7 (Homo sapiens, UniProt P28062). As to the kind of experiment: Proteasome-Glo inhibition of proteasome activity in cells, PBMC/LMP7. The following applies: 2 h incubation at 37° C. The assay is classed as cell-based. On the procedure: as §1
Assay [4] deals with immunoproteasome LPM2/β1i subunit (Homo sapiens, UniProt P28065). Description: Caliper-based proteasome enzymatic activity assay, LMP2. The class given is biochemical. The following applies: human recombinant immunoproteasome 0.3 nM, FAM-labeled peptide substrate 1 μM, rt 2 h.
For assay [5], the target named is constitutive proteasome β5c unit (Homo sapiens, UniProt P28074). Description: Caliper-based proteasome enzymatic activity assay, β5c. The assay is classed as biochemical. The following applies: human recombinant constitutive proteasome 0.3 nM, FAM-labeled peptide substrate 1 μM, rt 3 h; read-out: β5c subunit IC50.
In assay [6] the target is T2, PBMC/LMP7. As to the kind of experiment: Durability of binding in cells, wash-out assay, PBMC/LMP7. The assay is classed as cell-based. The following applies: 2 h incubation, inhibitor washout. On the procedure: (§2) The durability of binding of proteasome inhibitors was assessed in cells using wash-out assays and the Proteasome-Glo™ Reagent kit. THP-1 cells. HT-29 cells, or PBMC were incubated with an 8-fold dilution series of inhibitor for 2 h. Following 2 h of incubation, cells were washed using 3 occasions of centrifugation followed by resuspension in culture medium. Following inhibitor washout, cells were returned to culture for either 30 minutes, 4 h, or 18 h. Cells were then transferred to white 384 plates, and 20 uL of Proteasome-Glo™ Reagent was added to each well for 10 minutes. Plates were then read on an Analyst HT plate reader using luminescence mode. The percent inhibition of activity was plotted as a function of log compound concentration. The IC50 was then calculated for each compound using Prism software from GraphPad.

Assay [7] concerns the target T3, PBMC/LMP2 (Homo sapiens, UniProt P28065). As to the kind of experiment: Proteasome-Glo inhibition of proteasome activity in cells, PBMC/LMP2. The class given is cell-based. The following applies: 2 h incubation at 37° C.
For assay [8], the target named is T1, HT29/B5c. Description: Durability of binding in cells, wash-out assay, HT29/B5c. The assay is classed as cell-based. The following applies: 2 h incubation, inhibitor washout. On the procedure: as §2
Assay [9] concerns the target T3, PBMC/LMP2. Description: Durability of binding in cells, wash-out assay, PBMC/LMP2. The assay is classed as cell-based. The following applies: 2 h incubation, inhibitor washout. On the procedure:
as §2

For orientation: IC50 means the midpoint of a concentration-inhibition curve. Regarding `CC(C)C=C(C#N)C(=O)NCCCC[C@H](NCC(F)(F)F)C(=O)N[C@@H](Cc1ccccc1)B(O)O` [Example 13, ((R)-1-((S)-6-(2-cyano-4-methylpent-2-enamido)-2-((2,2,2-trifluoroethyl)amino)hexanamido)-2-phenylethyl)boronic acid], the IC50 was 67.1 nM in assay [1]; 242 nM against HT29/B5c [2]; 50 nM against PBMC/LMP7 [3]; > 5000 nM in assay [4]; 292 nM in assay [5].
In the case of `C=CC(=O)N(C)c1cccc(C[C@H](NC(=O)c2cc(Cl)ccc2Cl)C(=O)N[C@@H](Cc2ccccc2)B(O)O)c1` [Example 15, ((R)-1-((S)-2-(2,5-dichlorobenzamido)-3-(3-(N-methylacrylamido)phenyl)propanamido)-2-phenylethyl)boronic acid], the IC50 in [1] was found to be 4.3 nM; against HT29/B5c [2] it was 141 nM; at PBMC/LMP7 [3], 35 nM; in assay [4], 2.7 nM; in assay [5], 5 nM.
`CC(C)C=C(C#N)C(=O)N1CCCC[C@@H]1COC[C@H](NCC(F)(F)F)C(=O)N[C@@H](Cc1ccccc1)B(O)O` [Example 25, ((R)-1-((S)-3-(((R)-1-(2-cyano-4-methylpent-2-enoyl)piperidin-2-yl)methoxy)-2-((2,2,2-trifluoroethyl)amino)propanamido)-2-phenylethyl)boronic acid]: the half-maximal inhibitory concentration (IC50) in [1] was 10 nM; at PBMC/LMP7 [3] it was 28 nM; in assay [4], 701 nM; in assay [5] it was 411 nM.
On to `CC(C)C=C(C#N)C(=O)N1CCC(CCCC(=O)N[C@@H](Cc2ccccc2)B(O)O)CC1` [Example 29, (R)-(1-(4-(1-(2-cyano-4-methylpent-2-enoyl)piperidin-4-yl)butanamido)-2-phenylethyl)boronic acid], for which the IC50 in assay [1] is 319 nM; at HT29/B5c [2], 3590 nM; on PBMC/LMP7 [3] it was 307 nM; in assay [4], > 5000 nM; in [5] it was 964 nM.
`CC(=O)N[C@@H](CCCCNC(=O)C(C#N)=CC(C)C)C(=O)N[C@@H](Cc1ccccc1)B(O)O` [Example 11, ((R)-1-((S)-2-acetamido-6-(2-cyano-4-methylpent-2-enamido)hexanamido)-2-phenylethyl)boronic acid]: the IC50 worked out at 2.6 nM in assay [1], 390 nM at PBMC/LMP7 [3] and 4 nM in [5].
Take `CC(C)C=C(C#N)C(=O)NCCCC[C@H](NC(=O)c1cc(Cl)ccc1Cl)C(=O)N[C@@H](Cc1ccccc1)B(O)O` [Example 8, ((R)-1-((S)-6-(2-cyano-4-methylpent-2-enamido)-2-(2,5-dichlorobenzamido)hexanamido)-2-phenylethyl)boronic acid]: the half-inhibitory concentration (IC50) in [1] was found to be 2.4 nM; against PBMC/LMP7 [3], 39 nM; in assay [4], 79 nM; in assay [5] it was 4.4 nM.
Regarding `CC(C)C=C(C#N)C(=O)N1CCC[C@@H]1COC[C@H](NC(=O)c1cc(Cl)ccc1Cl)C(=O)N[C@@H](Cc1ccccc1)B(O)O` [Example 14, ((R)-1-((S)-3-(((R)-1-(2-cyano-4-methylpent-2-enoyl)pyrrolidin-2-yl)methoxy)-2-(2,5-dichlorobenzamido)propanamido)-2-phenylethyl)boronic acid], the IC50 on PBMC/LMP7 [6] (30 min in culture) came out at 50 nM; on PBMC/LMP7 [6] (4 hr in culture), 93 nM; on PBMC/LMP7 [6] (18 hr in culture), 146 nM; at PBMC/LMP2 [7] it was 274 nM; at HT29/B5c [8] (30 min in culture), 82 nM; on HT29/B5c [8] (4 hr in culture), 87 nM. Besides, the 50% inhibitory concentration (IC50) stood at 1850 nM on HT29/B5c [8] (18 hr in culture); 1.7 nM in [1]; 60 nM against HT29/B5c [2]; 27 nM on PBMC/LMP2 [9] (30 min in culture); 505 nM on PBMC/LMP2 [9] (4 hr in culture); 2960 nM at PBMC/LMP2 [9] (18 hr in culture). Besides, the results for the IC50 (against PBMC/LMP7 [3]; in assay [4]; in [5]) were 31 nM, 138 nM and 2.4 nM, respectively.
For `CC(C)C=C(C#N)C(=O)N(C)c1cccc(C[C@H](NC(=O)c2cc(Cl)ccc2Cl)C(=O)N[C@@H](Cc2ccccc2)B(O)O)c1` [Example 20, ((R)-1-((S)-3-(3-(2-cyano-N,4-dimethylpent-2-enamido)phenyl)-2-(2,5-dichlorobenzamido)propanamido)-2-phenylethyl)boronic acid], the IC50 against PBMC/LMP2 [7] stood at 208 nM; in assay [1] it was 2.4 nM; against PBMC/LMP7 [3], 34 nM; in [4], 483 nM; in assay [5], 8.1 nM.
As for `N#CC(=CC1CC1)C(=O)N1CCC[C@@H]1COC[C@H](NCC(F)(F)F)C(=O)N[C@@H](Cc1ccccc1)B(O)O` [Example 22, (R)-1-((S)-3-(((R)-1-(2-cyano-3-cyclopropylacryloyl)pyrrolidin-2-yl)methoxy)-2-(2,2,2-trifluoroethylamino)propanamido)-2-phenylethylboronic acid], the figures for the IC50 (in assay [1]; against PBMC/LMP7 [3]; in assay [5]) were 22 nM, 39 nM and 308 nM, respectively.
As to `CC(C)C=C(C#N)C(=O)N1CCCC[C@@H]1CNC(=O)N[C@@H](Cc1ccccc1)B(O)O` [Example 33, ((R)-1-(3-(((R)-1-(2-cyano-4-methylpent-2-enoyl)piperidin-2-yl)methyl)ureido)-2-phenylethyl)boronic acid], the IC50 in assay [1], in assay [4] and in assay [5] was > 5000 nM in each case.
Consider `C=CC(=O)N1CCC[C@@H]1CNC(=O)N[C@@H](Cc1ccccc1)B(O)O` [Example 36, ((R)-1-(3-(((R)-1-acryloylpyrrolidin-2-yl)methyl)ureido)-2-phenylethyl)boronic acid], for which the IC50 in assay [1] was 1140 nM; in [4], > 5000 nM; in assay [5] it was > 5000 nM.
With `CC(C)C=C(C#N)C(=O)N(C)c1cccc(C[C@H](NC(=O)c2cnccn2)C(=O)N[C@@H](Cc2ccccc2)B(O)O)c1` [Example 21, ((R)-1-((S)-3-(3-(2-cyano-N,4-dimethylpent-2-enamido)phenyl)-2-(pyrazine-2-carboxamido)propanamido)-2-phenylethyl)boronic acid], the IC50 in [1] was determined as 2.5 nM; against PBMC/LMP7 [3], 73 nM; in [5], 21.1 nM.
Take `CC(C)C=C(C#N)C(=O)N1CCC[C@@H]1CNC(=O)N[C@@H](Cc1ccccc1)B(O)O` [Example 32, ((R)-1-(3-(((R)-1-(2-cyano-4-methylpent-2-enoyl)pyrrolidin-2-yl)methyl)ureido)-2-phenylethyl)boronic acid]: the half-maximal inhibitory concentration (IC50) in assay [1] was 37.2 nM; on PBMC/LMP7 [3], 110 nM; in assay [4] it was > 5000 nM; in [5], > 5000 nM.
Regarding `CC(C)(C=C(C#N)C(=O)N1CCC[C@@H]1CNC(=O)N[C@@H](Cc1coc2ccccc12)B(O)O)N1CCN(C2COC2)CC1` [Example 48, ((R)-2-(benzofuran-3-yl)-1-(3-(((R)-1-(2-cyano-4-methyl-4-(4-(oxetan-3-yl)piperazin-1-yl)pent-2-enoyl)pyrrolidin-2-yl)methyl)ureido)ethyl)boronic acid], the values for the IC50 in assay [1], in assay [4] and in [5] were 8.7 nM, 3740 nM and 383 nM, respectively.
